In US20230365602A1, “COMPOUND FOR USE IN THE TREATMENT OF PROTOZOAL DISEASES AND PROCESS FOR PRODUCTION OF SAID COMPOUND” (QUADREL S.R.L., priority 2020, published 2023):
Entries after “also recorded” stand apart in the source; their conditions may differ. Like-named read-outs stand apart in the source and are kept apart here.

Legend:
[1] = system: L. infantum (MHOM/MA/67/ITMAP-263) intracellular amastigotes; assay: Anti-parasitic activity against L. infantum intracellular amastigotes (infection with axenic amastigotes luciferase positive); type: cell-based; conditions: Table 1
[2] = Toxicity MTT assay in PMA-differentiated THP-1 cells; type: cell-based, human; conditions: human, PMA-differentiated THP-1 cells (macrophages)
From the text: (§1) The in vitro antiparasitic activity against L. infantum (MHOM/MA/67/ITMAP-263) and the toxicity against THP-1 macrophages is presented in Table 1.

[3] = system: PMA-differentiated THP-1 cells; assay: as above; type: cell-based, human; conditions: Table 2; read-out: Toxicity CC50 ± SD or NOAEL
From the text: as §1

[4] = system: T. b. brucei L427 WT Blood-Stream Form; assay: Anti-parasitic activity against T. b. brucei blood-stream form (resazurin 72 h assay); type: cell-based; conditions: Table 2
CYP1A2 = molecular target: T1, CYP1A2 (Homo sapiens, UniProt P05177); assay: Early toxicity: CYP1A2 inhibition; type: in vitro ADME; conditions: human, mean ± SD, Table 4a
T1 sequence (P05177 1-516): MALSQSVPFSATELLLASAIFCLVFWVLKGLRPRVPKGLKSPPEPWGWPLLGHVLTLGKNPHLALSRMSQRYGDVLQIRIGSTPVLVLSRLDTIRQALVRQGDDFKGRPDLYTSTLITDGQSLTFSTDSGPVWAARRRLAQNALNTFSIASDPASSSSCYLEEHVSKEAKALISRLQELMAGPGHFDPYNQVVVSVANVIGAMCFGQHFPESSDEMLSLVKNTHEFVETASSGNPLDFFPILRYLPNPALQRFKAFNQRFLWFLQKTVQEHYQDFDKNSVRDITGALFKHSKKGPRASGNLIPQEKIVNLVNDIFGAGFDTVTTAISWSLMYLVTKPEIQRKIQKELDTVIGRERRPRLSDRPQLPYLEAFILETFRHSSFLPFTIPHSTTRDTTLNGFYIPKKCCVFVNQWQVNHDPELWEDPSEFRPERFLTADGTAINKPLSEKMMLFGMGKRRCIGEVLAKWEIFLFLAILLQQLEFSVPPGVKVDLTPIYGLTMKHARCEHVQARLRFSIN

CYP2C9 = CYP2C9 (Homo sapiens, UniProt P11712); assay: Early toxicity: CYP2C9 inhibition; type: in vitro ADME; conditions: human, mean ± SD, Table 4a
Sequence of CYP2C9 (P11712 whole entry): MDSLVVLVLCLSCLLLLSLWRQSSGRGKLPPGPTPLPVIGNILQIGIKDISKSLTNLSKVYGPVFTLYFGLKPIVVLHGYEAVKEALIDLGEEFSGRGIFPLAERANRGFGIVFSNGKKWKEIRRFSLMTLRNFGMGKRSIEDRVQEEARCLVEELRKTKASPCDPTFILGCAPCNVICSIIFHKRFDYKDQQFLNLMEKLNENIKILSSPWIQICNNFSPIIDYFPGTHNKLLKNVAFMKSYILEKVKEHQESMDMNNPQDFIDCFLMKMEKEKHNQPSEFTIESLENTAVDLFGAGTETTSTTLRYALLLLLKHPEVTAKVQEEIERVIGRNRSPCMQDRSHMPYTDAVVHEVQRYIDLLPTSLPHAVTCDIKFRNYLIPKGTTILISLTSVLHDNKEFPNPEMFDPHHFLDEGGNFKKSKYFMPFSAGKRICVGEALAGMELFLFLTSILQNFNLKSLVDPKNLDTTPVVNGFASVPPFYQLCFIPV

CYP2C19 = CYP2C19 (Homo sapiens, UniProt P33261); assay: Early toxicity: CYP2C19 inhibition; type: in vitro ADME; conditions: Table 4a
Sequence of CYP2C19 (P33261 whole entry): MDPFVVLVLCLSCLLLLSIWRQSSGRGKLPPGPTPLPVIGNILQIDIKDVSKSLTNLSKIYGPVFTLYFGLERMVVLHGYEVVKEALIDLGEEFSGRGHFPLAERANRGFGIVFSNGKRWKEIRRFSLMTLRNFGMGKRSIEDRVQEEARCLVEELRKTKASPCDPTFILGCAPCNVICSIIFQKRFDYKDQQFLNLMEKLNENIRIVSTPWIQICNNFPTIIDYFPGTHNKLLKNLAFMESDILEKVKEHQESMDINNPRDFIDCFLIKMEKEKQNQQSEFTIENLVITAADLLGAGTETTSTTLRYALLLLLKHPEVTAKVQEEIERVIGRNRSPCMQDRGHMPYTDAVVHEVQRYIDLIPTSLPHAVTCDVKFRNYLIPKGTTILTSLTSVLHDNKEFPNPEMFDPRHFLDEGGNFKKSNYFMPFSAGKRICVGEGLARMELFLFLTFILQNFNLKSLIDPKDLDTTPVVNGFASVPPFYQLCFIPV

CYP2D6 = CYP2D6 (Homo sapiens, UniProt P10635); assay: Early toxicity: CYP2D6 inhibition; type: in vitro ADME; conditions: Table 4a
Sequence of CYP2D6 (P10635 whole entry): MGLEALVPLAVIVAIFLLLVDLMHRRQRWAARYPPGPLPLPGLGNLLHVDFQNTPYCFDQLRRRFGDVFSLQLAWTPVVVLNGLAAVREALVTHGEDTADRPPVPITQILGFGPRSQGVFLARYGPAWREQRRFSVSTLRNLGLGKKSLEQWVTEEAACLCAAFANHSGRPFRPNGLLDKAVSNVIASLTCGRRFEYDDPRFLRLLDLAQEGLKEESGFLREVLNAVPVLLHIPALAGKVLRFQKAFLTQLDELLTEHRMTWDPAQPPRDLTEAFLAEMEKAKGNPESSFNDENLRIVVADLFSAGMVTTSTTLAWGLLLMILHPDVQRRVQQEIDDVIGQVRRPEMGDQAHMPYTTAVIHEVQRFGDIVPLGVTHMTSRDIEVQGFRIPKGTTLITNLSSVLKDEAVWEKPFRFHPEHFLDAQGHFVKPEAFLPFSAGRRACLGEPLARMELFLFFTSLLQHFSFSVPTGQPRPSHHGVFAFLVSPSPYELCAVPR

CYP3A4 = CYP3A4 (Homo sapiens, UniProt P08684); assay: Early toxicity: CYP3A4 inhibition; type: in vitro ADME; conditions: Table 4a
Sequence of CYP3A4 (P08684 whole entry): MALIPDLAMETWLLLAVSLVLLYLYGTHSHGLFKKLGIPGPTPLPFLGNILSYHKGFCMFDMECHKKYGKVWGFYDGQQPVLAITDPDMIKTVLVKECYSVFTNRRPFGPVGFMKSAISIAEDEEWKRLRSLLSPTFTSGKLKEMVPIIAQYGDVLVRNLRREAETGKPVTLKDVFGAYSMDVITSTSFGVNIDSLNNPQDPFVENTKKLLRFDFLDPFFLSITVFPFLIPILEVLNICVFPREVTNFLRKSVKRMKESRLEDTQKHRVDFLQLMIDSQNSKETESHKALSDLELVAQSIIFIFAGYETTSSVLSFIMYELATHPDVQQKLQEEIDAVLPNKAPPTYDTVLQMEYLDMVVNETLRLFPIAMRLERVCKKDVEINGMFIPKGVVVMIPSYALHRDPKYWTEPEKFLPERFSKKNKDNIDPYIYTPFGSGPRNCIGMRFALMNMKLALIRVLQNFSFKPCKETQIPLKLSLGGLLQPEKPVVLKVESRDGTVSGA

A549 = assay: Early toxicity: A549 cell growth; type: cell-based; conditions: 10 μM; 100% = not cytotoxic, 0% = cytostatic, −100% = cytotoxic
mitochondria = assay: Early toxicity: mitochondrial toxicity; type: cell-based
[5] = Snapshot pharmacokinetics in plasma after oral gavage; type: in vivo, mice; conditions: mouse, plasma, po, healthy BALB/c mice, 20 mg/kg gavage, Table 13
Experimental: Pharmacology of 5-cyclopentadecylpentyl (2-(trimethylammonio)ethyl) phosphate (19) in mice.
Blood samples were collected from the tail vein at 0, 0.5, 0.75, 1, 3, 24 and 72 hours into heparinized tubes. Moreover, biodistribution of the molecule, 72h after administration, was determined in several organs of the treated mice, namely brain, liver, spleen, kidney, heart and bone marrow. […] J Chromatogr B, 865: 55-62) by liquid chromatography mass spectrometry (LC-MS/MS).

[6] = system: L. infantum axenic amastigotes expressing luciferase; assay: In vivo model of infection with L. infantum axenic amastigotes expressing luciferase; conditions: ten consecutive oral treatments with 10 mg/kg, 2 weeks after last treatment
Experimental: FIG. 4 illustrates the in vivo activity of compounds 18 and 19 in a model of infection with L. infantum axenic amastigotes expressing luciferase (10 consecutive treatments with 10 mg/kg of each compound, evaluated by limiting dilution assay 2 weeks after the last treatment).
In vivo activity of compounds 18 and 19 (ten consecutive oral treatments with 10 mg/kg of each compound, followed by a break of 2 weeks after last treatment), was studied in a model of infection with axenic amastigotes expressing luciferase, essentially as described in (Mendes Costa D. et al, J. Sci Rep. 2019 Dec. 12; 9(1):18989; Tavares J. et al., Methods Mol Biol. 2019; 1971:289-301). (FIG. 4).

hERG channel = hERG channel (Homo sapiens, UniProt Q12809); assay: Early toxicity: hERG inhibition
Sequence of hERG channel (Q12809 whole entry): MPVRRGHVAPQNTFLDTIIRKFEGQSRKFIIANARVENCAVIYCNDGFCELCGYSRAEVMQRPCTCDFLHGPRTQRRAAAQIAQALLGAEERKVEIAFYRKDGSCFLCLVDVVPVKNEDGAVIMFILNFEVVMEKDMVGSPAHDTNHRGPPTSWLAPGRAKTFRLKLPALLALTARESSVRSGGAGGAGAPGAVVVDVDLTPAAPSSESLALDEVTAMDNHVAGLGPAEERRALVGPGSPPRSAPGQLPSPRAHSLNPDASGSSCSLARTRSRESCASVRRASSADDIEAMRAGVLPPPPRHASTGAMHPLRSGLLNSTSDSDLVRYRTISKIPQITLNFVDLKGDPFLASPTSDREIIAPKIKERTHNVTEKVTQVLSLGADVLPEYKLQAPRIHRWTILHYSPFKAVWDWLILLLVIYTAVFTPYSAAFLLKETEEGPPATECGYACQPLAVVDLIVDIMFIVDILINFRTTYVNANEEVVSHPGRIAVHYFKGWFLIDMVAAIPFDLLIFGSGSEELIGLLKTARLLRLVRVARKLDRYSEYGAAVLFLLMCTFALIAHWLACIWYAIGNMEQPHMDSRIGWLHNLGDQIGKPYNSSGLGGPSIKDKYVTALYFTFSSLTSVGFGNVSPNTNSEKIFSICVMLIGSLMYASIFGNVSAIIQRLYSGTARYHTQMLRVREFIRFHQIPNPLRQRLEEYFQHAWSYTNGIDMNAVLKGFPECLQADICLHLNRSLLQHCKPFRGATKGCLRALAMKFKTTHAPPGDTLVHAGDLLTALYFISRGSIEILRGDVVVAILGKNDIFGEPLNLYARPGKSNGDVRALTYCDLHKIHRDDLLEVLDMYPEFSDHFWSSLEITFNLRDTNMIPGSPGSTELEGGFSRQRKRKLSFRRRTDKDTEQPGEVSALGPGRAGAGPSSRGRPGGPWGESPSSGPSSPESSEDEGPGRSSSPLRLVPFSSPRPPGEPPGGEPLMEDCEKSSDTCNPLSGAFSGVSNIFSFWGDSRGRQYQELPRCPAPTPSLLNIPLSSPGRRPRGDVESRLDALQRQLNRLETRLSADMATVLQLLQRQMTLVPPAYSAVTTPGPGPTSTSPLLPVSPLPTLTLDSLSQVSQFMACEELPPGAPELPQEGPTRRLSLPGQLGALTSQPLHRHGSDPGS

With `C[N+](C)(C)CCOP(=O)([O-])OCCCCC1CCCCCCCCCCCCCC1` [Compound 18, 4-cyclopentadecylbutyl (2-(trimethylammonio)ethyl) phosphate] the inhibition at 10 µM ([1]; Leishmania infantum, 10 μM, read-out: Single Dose Assay 10 μM Mean Inhibitory Activity (%) ± SD) was 97 ± 2%, the IC50 ([1]; Leishmania infantum, read-out: Dose Response Curves IC50 ± SD) was 0.6 ± 0.3 µM and the “Selectivity Index CC50/IC50 or NOAEL/IC50” value ([1]; THP-1 toxicity / L. infantum IC50) was greater than 166. For the same compound, the CC50 ([2]; THP-1 macrophages, Table 1, read-out: Toxicity CC50 ± SD or NOAEL) was greater than 100 µM, the IC50 ([2]; Table 4b, read-out: Cytotoxicity THP-1 (IC50)) was greater than 100 µM and the CC50 [3] was greater than 100 µM. For the same compound, the “activity against T. b. brucei blood-stream form” value [4] was “unexpectedly high activity in the low micromolar range”, the inhibition at 10 µM ([4]; Trypanosoma brucei, 10 μM, read-out: Single Dose Assay 10 μM Mean Inhibitory Activity (%) ± SD) was 91 ± 12% and the IC50 ([4]; Trypanosoma brucei, resazurin 72 h, read-out: Dose Response Curves IC50 ± SD) was 7.44 ± 0.65 µM. For the same compound, the “Selectivity Index CC50/IC50 or NOAEL/IC50” value ([4]; toxicity / T. b. brucei IC50) was greater than 13, the inhibition at 10 µM (CYP1A2) was 14 ± 1.17% and the inhibition at 10 µM (CYP2C9) was 5.66 ± 5.52%. The “CYP2C19 interaction / inhibition” value (CYP2C19; 10 μM) was “interact; also recorded: significant inhibition”, the inhibition at 10 µM (CYP2C19; human, mean ± SD) was 33.3 ± 4.67% and the “CYP2D6 interaction / inhibition” value (CYP2D6; 10 μM) was “interact; also recorded: significant inhibition”. The inhibition at 10 µM (CYP2D6; human, mean ± SD) was 64.5 ± 2.92%, the “CYP3A4 interaction” value (CYP3A4) was “interact” and the inhibition at 10 µM (CYP3A4; human, 10 μM, mean ± SD, read-out: % inhibition CYP3A4) was 38.1 ± 2.67%. The “% cell growth A549” value (A549) was 132.80 ± 8.98%, the “% mitochondrial toxicity” value (mitochondria; 10 μM, 100% mitotoxic, 0% not mitotoxic) was 109.49 ± 9.62% and the “mitochondrial toxicity” value (mitochondria; Table 4b) was “exhibit mitochondrial toxicity”. It also gave an AUC(0-inf) ([5]; read-out: AUC (0-∞)) of 262 µg·h/mL, an AUC(0-inf) ([5]; read-out: AUC (0-∞) (μM h/mL)) of 586 µM·h and a Cmax ([5]; read-out: Cmax) of 20.3 µM. It also gave a Cmax ([5]; read-out: Cmax (μg/mL)) of 9.1 µg/mL, a Tmax ([5]; read-out: tmax) of 5 h and a half-life ([5]; read-out: t½ (converted)) of 16.3 h. The “parasitic burden in the spleen, liver or bone marrow” value [6] was “not effective”, the “Flag for Interference, hERG” value (hERG channel; Table 4b) was “(no)” and the inhibition at 10 µM (hERG channel; human) was 34.8 ± 14%.
